Assay results reported in US20210393633A1, “INHIBITORS OF HUMAN IMMUNODEFICIENCY VIRUS REPLICATION” (ViiV HEALTHCARE UK (NO.5) LIMITED, priority 2018, published 2021).

How the values were obtained:
[1] = test system: recombinant NL4-3 virus (nef section replaced with Renilla luciferase gene) in MT-2 cells; assay: HIV cell culture assay (antiviral activity, luciferase readout in infected MT-2 cells); type: cell-based; conditions: NL43
Method: HIV cell culture assay—MT-2 cells, 293T cells and the proviral DNA clone of NL4-3 virus were obtained from the NIH AIDS Research and Reference Reagent Program. MT-2 cells were propagated in RPMI 1640 media supplemented with 10% heat inactivated fetal bovine serum (FBS), […]. The 293T cells were propagated in DMEM media supplemented with 10% heat inactivated FBS, […]. A recombinant NL4-3 proviral clone, in which a section of the nef gene was replaced with the Renilla luciferase gene, was used to make the reference virus used in these studies. The recombinant virus was prepared through transfection of the recombinant NL4-3 proviral clone into 293T cells using Transit-293 Transfection Reagent from Minis Bio LLC (Madison, Wis.). Supernatent was harvested after 2-3 days and the amount of virus present was titered in MT-2 cells using luciferase enzyme activity as a marker by measuring luciferase enzyme activity. Luciferase was quantitated using the EnduRen Live Cell Substrate from Promega (Madison, Wis.). Antiviral activities of compounds toward the recombinant virus were quantified by measuring luciferase activity in MT-2 cells infected for 4-5 days with the recombinant virus in the presence of serial dilutions of the compound.
The 50% effective concentration (EC5o) was calculated by using the exponential form of the median effect equation where (Fa)=1/[1+(ED50/drug conc.)m] (Johnson Va., Byington R T. Infectivity Assay. In Techniques in HIV Research. ed. Aldovini A, Walker B D. 71-76. New York: Stockton Press.1990). The 50% inhibitory concentration (EC50) was calculated by using the exponential form of the median effect equation where percent inhibition=1/[1 +(EC50/drug concentration)m], where m is a parameter that reflects the slope of the concentration-response curve.

[2] = Compound cytotoxicity, XTT-based colorimetric assay; type: cell-based; conditions: human; uninfected MT2 cells, day 4, XTT
Method: Compound cytotoxicity and the corresponding CC50 values were determined using the same protocol as described in the antiviral assay except that uninfected cells were used. Cytotoxicity was assessed on day 4 in uninfected MT2 cells by using a XTT (2,3-bis[2-Methoxy-4-nitro-5-sulfophenyl]-2H-tetrazolium-5-carboxyanilide inner salt)-based colorimetric assay (Sigma-Aldrich, St Louis, Mo).

Row | Compound | EC50 [1] [nM] | CC50 at 4 day [2] [nM]
1 | C[C@@H]1CC(c2ccc3c(=O)n(-c4ccc(Cl)c5c(NS(C)(=O)=O)nn(C)c45)c([C@H](Cc4cc(F)cc(F)c4)NC(=O)Cn4nc(C(F)F)c5c4C(F)(F)[C@@H]4C[C@H]54)nc3c2)=C[C@H](C)O1 (atropisomer, axis not shown; (P)) [Example 19, N—((S)-1-((3P)-3-(4-chloro-1-methyl-3-(methylsulfonamido)-1H-indazol-7-yl)-7-((2R,6S)-2,6-dimethyl-3,6-dihydro-2H-pyran-4-yl)-4-oxo-3,4-dihydroquinazolin-2-yl)-2-(3,5-difluorophenyl)ethyl)-2-((3bS,4aR)-3-(difluoromethyl)-5,5-difluoro-3b,4,4a,5-tetrahydro-1H-cyclopropa[3,4]cyclopenta[1,2-c]pyrazol-1-yl)acetamide] | 0.08 | > 500
2 | C[C@@H]1CC(c2ccc3c(=O)n(-c4ccc(Cl)c5c(NS(C)(=O)=O)nn(CC(F)F)c45)c([C@H](Cc4cc(F)cc(F)c4)NC(=O)Cn4nc(C(F)F)c5c4C(F)(F)[C@@H]4C[C@H]54)nc3c2)=C[C@H](C)O1 (atropisomer, axis not shown; (P)) [Example 20, N—((S)-1-((3P)-3-(4-chloro-1-(2,2-difluoroethyl)-3-(methylsulfonamido)-1H-indazol-7-yl)-7-((2R,6S)-2,6-dimethyl-3,6-dihydro-2H-pyran-4-yl)-4-oxo-3,4-dihydroquinazolin-2-yl)-2-(3,5-difluorophenyl)ethyl)-2-((3bS,4aR)-3-(difluoromethyl)-5,5-difluoro-3b,4,4a,5-tetrahydro-1H-cyclopropa[3,4]cyclopenta[1,2-c]pyrazol-1-yl)acetamide] | 0.13 | > 500
3 | C[C@@H]1CC(c2ccc3c(=O)n(-c4ccc(Cl)c5c(NS(C)(=O)=O)nn(C)c45)c([C@H](Cc4cc(F)cc(F)c4)NC(=O)Cn4nc(C(F)F)c5c4C(F)(F)[C@@H]4C[C@H]54)nc3c2)C[C@H](C)O1 (stereo partly drawn) [Example 22, N-((1S)-1-((3P)-3-(4-chloro-1-methyl-3-(methylsulfonamido)-1H-indazol-7-yl)-7-((2R,6S)-2,6-dimethyltetrahydro-2H-pyran-4-yl)-4-oxo-3,4-dihydroquinazolin-2-yl)-2-(3,5-difluorophenyl)ethyl)-2-((3bS,4aR)-3-(difluoromethyl)-5,5-difluoro-3b,4,4a,5-tetrahydro-1H-cyclopropa[3,4]cyclopenta[1,2-c]pyrazol-1-yl)acetamide] | 0.082 | > 500
4 | Cn1nc(NS(C)(=O)=O)c2c(Cl)ccc(-n3c([C@H](Cc4cc(F)cc(F)c4)NC(=O)Cn4nc(C(F)F)c5c4C(F)(F)[C@@H]4C[C@H]54)nc4cc(C5CCOCC5)ccc4c3=O)c21 (atropisomer, axis not shown; (P)) [Example 11, N—((S)-1-((3P)-3-(4-chloro-1-methyl-3-(methylsulfonamido)-1H-indazol-7-yl)-4-oxo-7-(tetrahydro-2H-pyran-4-yl)-3,4-dihydroquinazolin-2-yl)-2-(3,5-difluorophenyl)ethyl)-2-((3bS,4aR)-3-(difluoromethyl)-5,5-difluoro-3b,4,4a,5-tetrahydro-1H-cyclopropa[3,4]cyclopenta[1,2-c]pyrazol-1-yl)acetamide] | 0.046 | > 1000
5 | CCCCCCCCc1ccc2c(=O)n(-c3ccc(Cl)c4c(NS(C)(=O)=O)nn(C)c34)c([C@H](Cc3cc(F)cc(F)c3)NC(=O)Cn3nc(C(F)F)c4c3C(F)(F)[C@@H]3C[C@H]43)nc2c1 (atropisomer, axis not shown; (P)) [Example 4, N—((S)-1-((3P)-3-(4-chloro-1-methyl-3-(methylsulfonamido)-1H-indazol-7-yl)-7-octyl-4-oxo-3,4-dihydroquinazolin-2-yl)-2-(3,5-difluorophenyl)ethyl)-2-((3bS,4aR)-3-(difluoromethyl)-5,5-difluoro-3b,4,4a, 5-tetrahydro-1H-cyclopropa[3, 4]cyclopenta [1,2-c]pyrazol-1-yl)acetamide] | 3.9 | > 1000
6 | O=C(Cn1nc(C(F)F)c2c1C(F)(F)[C@@H]1C[C@H]21)N[C@@H](Cc1cc(F)cc(F)c1)c1nc2cc(C3CCOCC3)ccc2c(=O)n1-c1ccc(Cl)c2c(NS(=O)(=O)C3CC3)nn(CC(F)F)c12 (atropisomer, axis not shown; (P)) [Example 18] | 0.084 | > 500
7 | C[C@@H]1CC(c2ccc3c(=O)n(-c4ccc(Cl)c5c(NS(=O)(=O)C6CC6)nn(CC(F)F)c45)c([C@H](Cc4cc(F)cc(F)c4)NC(=O)Cn4nc(C(F)F)c5c4C(F)(F)[C@@H]4C[C@H]54)nc3c2)=C[C@H](C)O1 (atropisomer, axis not shown; (P)) [Example 21, N—((S)-1-((3P)-3-(4-chloro-3-(cyclopropanesulfonamido)-1-(2,2-difluoroethyl)-1H-indazol-7-yl)-7-((2R,6S)-2,6-dimethyl-3,6-dihydro-2H-pyran-4-yl)-4-oxo-3,4-dihydroquinazolin-2-yl)-2-(3,5-difluorophenyl)ethyl)-2-((3bS,4aR)-3-(difluoromethyl)-5,5-difluoro-3b,4,4a,5-tetrahydro-1H-cyclopropa[3,4]cyclopenta[1,2-c]pyrazol-1-yl)acetamide] | 0.14 | > 500
8 | Cn1nc(NS(C)(=O)=O)c2c(Cl)ccc(-n3c([C@H](Cc4cc(F)cc(F)c4)NC(=O)Cn4nc(C(F)F)c5c4C(F)(F)[C@@H]4C[C@H]54)nc4cc(CC5CC5)ccc4c3=O)c21 (atropisomer, axis not shown; (P)) [Example 12, N—((S)-1-((3P)-3-(4-chloro-1-methyl-3-(methylsulfonamido)-1H-indazol-7-yl)-7-(cyclopropylmethyl)-4-oxo-3,4-dihydroquinazolin-2-yl)-2-(3,5-difluorophenyl)ethyl)-2-((3bS,4aR)-3-(difluoromethyl)-5,5-difluoro-3b,4,4a,5-tetrahydro-1H-cyclopropal3,41cyclopenta[1,2-c]pyrazol-1-yl)acetamide] | 0.142 | > 1000
9 | CC(C)=C(C)c1ccc2c(=O)n(-c3ccc(Cl)c4c(NS(C)(=O)=O)nn(C)c34)c([C@H](Cc3cc(F)cc(F)c3)NC(=O)Cn3nc(C(F)F)c4c3C(F)(F)[C@@H]3C[C@H]43)nc2c1 (atropisomer, axis not shown; (P)) [Example 7, N—((S)-1-((3P)-3-(4-chloro-1-methyl-3-(methylsulfonamido)-1H-indazol-7-yl)-7-(3-methylbut-2-en-2-yl)-4-oxo-3,4-dihydroquinazolin-2-yl)-2-(3,5-difluorophenyl)ethyl)-2-((3bS,4aR)-3-(difluoromethyl)-5,5-difluoro-3b,4,4a,5-tetrahydro-1H-cyclopropa[3,4]cyclopenta[1,2-c]pyrazol-1-yl)acetamide] | 0.386 | > 1000
10 | O=C(Cn1nc(C(F)F)c2c1C(F)(F)[C@@H]1C[C@H]21)N[C@@H](Cc1cc(F)cc(F)c1)c1nc2cc(C3=CCOCC3)ccc2c(=O)n1-c1ccc(Cl)c2c(NS(=O)(=O)C3CC3)nn(CC(F)F)c12 [Example 16, N—((S)-1-((3P)-3-(4-chloro-3-(cyclopropanesulfonamido)-1-(2,2-difluoroethyl)-1H-indazol-7-yl)-7-(3,6-dihydro-2H-pyran-4-yl)-4-oxo-3,4-dihydroquinazolin-2-yl)-2-(3,5-difluorophenyl)ethyl)-2-((3bS,4aR)-3-(difluoromethyl)-5,5-difluoro-3b,4,4a,5-tetrahydro-1H-cyclopropa[3,4]cyclopenta[1,2-c]pyrazol-1-yl)acetamide] | 0.3 | > 500
11 | Cn1nc(NS(C)(=O)=O)c2c(Cl)ccc(-n3c([C@H](Cc4cc(F)cc(F)c4)NC(=O)Cn4nc(C(F)F)c5c4C(F)(F)[C@@H]4C[C@H]54)nc4cc(C5(C(F)(F)F)CC5)ccc4c3=O)c21 (atropisomer, axis not shown; (P)) [Example 27] | 0.13 | > 500
12 | Cn1nc(NS(C)(=O)=O)c2c(Cl)ccc(-n3c([C@H](Cc4cc(F)cc(F)c4)NC(=O)Cn4nc(C(F)F)c5c4C(F)(F)[C@@H]4C[C@H]54)nc4cc(CCc5ccccc5)ccc4c3=O)c21 (atropisomer, axis not shown; (P)) [Example 3, N—((S)-1-((3P)-3-(4-chloro-1-methyl-3-(methylsulfonamido)-1H-indazol-7-yl)-4-oxo-7-phenethyl-3,4-dihydroquinazolin-2-yl)-2-(3,5-difluorophenyl)ethyl)-2-((3bS,4aR)-3-(difluoromethyl)-5,5-difluoro-3b,4,4a,5-tetrahydro-1H-cyclopropa[3,4]cyclopenta[1,2-c]pyrazol-1-yl)acetamide] | 0.771 | > 1000
